Test results reported in ChEMBL document CHEMBL1147641, “Highly potent and long-acting trimeric and tetrameric inhibitors of influenza virus neuraminidase” (Bioorg Med Chem Lett, 2004).
In brackets after ≈: the same amount, converted by molar mass.

How the values were obtained:
[1] = test system: Mus musculus; assay: Number of virus free mice from total 10 mice infected with Influenza A/Singapore/1/57 after 12.5 mg/kg of intranasal administration for 172 hr prior to viral infection; format: functional
[2] = test system: Influenza A virus; assay: Antiinfluenza activity of compound against Influenza A/Sydney/5/97 in influenza cytopathic effect (CPE) assay; format: functional, organism-based
[3] = test system: Mus musculus; assay: Reduction in virus titre taken from mouse infected with Influenza A/Singapore/1/57 at 1.0 mg/kg dose in 7 day mouse influenza prevention assay; format: functional
[4] = test system: Influenza B virus; assay: Antiinfluenza activity of compound against Influenza B/Harbin/7/95 in influenza cytopathic effect (CPE) assay; format: functional, organism-based
[5] = test system: Mus musculus; assay: Number of virus free mice from total 8 mice infected with Influenza A/Singapore/1/57 after 12.5 mg/kg of intranasal administration for 172 hr prior to viral infection; format: functional
[6] = test system: Mus musculus; assay: Number of virus free mice from total 9 mice infected with Influenza A/Singapore/1/57 after 12.5 mg/kg of intranasal administration for 145 hr prior to viral infection; format: functional
[7] = test system: Mus musculus; assay: Reduction in virus titre taken from mouse infected with Influenza A/Singapore/1/57 at 0.4 mg/kg dose in 7 day mouse influenza prevention assay; format: functional
[8] = test system: Mus musculus; assay: Number of virus free mice from total 10 mice infected with Influenza A/Singapore/1/57 after 12.5 mg/kg of intranasal administration for 117 hr prior to viral infection; format: functional
[9] = test system: Mus musculus; assay: Number of virus free mice from total 9 mice infected with Influenza A/Singapore/1/57 after 12.5 mg/kg of intranasal administration for 51 hr prior to viral infection; format: functional
[10] = test system: Mus musculus; assay: Reduction in virus titre taken from mouse infected with Influenza A/Singapore/1/57 at 1.6 mg/kg dose in 7 day mouse influenza prevention assay; format: functional
[11] = test system: Mus musculus; assay: Reduction in virus titre taken from mouse infected with Influenza A/Singapore/1/57 at 0.1 mg/kg dose in 7 day mouse influenza prevention assay; format: functional
[12] = test system: Mus musculus; assay: Reduction in virus titre taken from mouse infected with Influenza A/Singapore/1/57 at 0.01 mg/kg dose in 7 day mouse influenza prevention assay; format: functional

## CC(=O)N[C@H]1[C@H]([C@H](O)[C@H](O)CO)OC(C(=O)O)=C[C@@H]1NC(=N)N [ZANAMIVIR]
[1]
  No. of virus free mice: 0
[2]
  EC50: 32.5 ng/mL (≈ 97.8 nM)
[3]
  Effectiveness: 81.76%
[4]
  EC50: 12.2 ng/mL (≈ 36.7 nM)
[5]
  No. of virus free mice: 0
[6]
  No. of virus free mice: 3
[7]
  Effectiveness: 0%
[8]
  No. of virus free mice: 1
[9]
  No. of virus free mice: 3
[10]
  Effectiveness: 97.03%

## CC(=O)N[C@H]1[C@H]([C@H](OC(=O)NCCCCCCNC(=O)CC(CC(=O)NCCCCCCNC(=O)O[C@@H]([C@@H]2OC(C(=O)O)=C[C@H](N=C(N)N)[C@H]2NC(C)=O)[C@H](O)CO)C(=O)NCCCCCCNC(=O)O[C@@H]([C@@H]2OC(C(=O)O)=C[C@H](NC(=N)N)[C@H]2NC(C)=O)[C@H](O)CO)[C@H](O)CO)OC(C(=O)O)=C[C@@H]1N=C(N)N
[2]
  EC50: 0.4 ng/mL (≈ 0.259 nM)
[3]
  Effectiveness: 98.24%
[4]
  EC50: 0.81 ng/mL (≈ 0.524 nM)
[11]
  Effectiveness: 68.78%

## CC(=O)N[C@H]1[C@H]([C@H](OC(=O)NCCCCCCNC(=O)[C@H]2C[C@@H](C(=O)NCCCCCCNC(=O)O[C@@H]([C@@H]3OC(C(=O)O)=C[C@H](NC(=N)N)[C@H]3NC(C)=O)[C@H](O)CO)C[C@@H](C(=O)NCCCCCCNC(=O)O[C@@H]([C@@H]3OC(C(=O)O)=C[C@H](NC(=N)N)[C@H]3NC(C)=O)[C@H](O)CO)C2)[C@H](O)CO)OC(C(=O)O)=C[C@@H]1NC(=N)N
[2]
  EC50: 0.3 ng/mL (≈ 0.189 nM)
[3]
  Effectiveness: 98.32%
[4]
  EC50: 0.438 ng/mL (≈ 0.276 nM)
[11]
  Effectiveness: 94.38%

## CC(=O)N[C@H]1[C@H]([C@H](OC(=O)NCCCCCCN)[C@H](O)CO)OC(C(=O)O)=C[C@@H]1NC(=N)N
[2]
  EC50: 438 ng/mL (≈ 923 nM)
[4]
  EC50: 213 ng/mL (≈ 449 nM)

## CC(=O)N[C@H]1[C@H]([C@H](OC(=O)NCCCCCCNC(=O)c2cc(C(=O)NCCCCCCNC(=O)O[C@@H]([C@@H]3OC(C(=O)O)=C[C@H](N=C(N)N)[C@H]3NC(C)=O)[C@H](O)CO)c(C(=O)NCCCCCCNC(=O)O[C@@H]([C@@H]3OC(C(=O)O)=C[C@H](NC(=N)N)[C@H]3NC(C)=O)[C@H](O)CO)cc2C(=O)NCCCCCCNC(=O)O[C@@H]([C@@H]2OC(C(=O)O)=C[C@H](N=C(N)N)[C@H]2NC(C)=O)[C@H](O)CO)[C@H](O)CO)OC(C(=O)O)=C[C@@H]1N=C(N)N
[2]
  EC50: 0.53 ng/mL (≈ 0.255 nM)
[3]
  Effectiveness: 99.68%
[4]
  EC50: 0.95 ng/mL (≈ 0.457 nM)
[11]
  Effectiveness: 74.88%

## CC(=O)N[C@H]1[C@H]([C@H](OC(=O)NCCCCCCNC(=O)CN(CCN(CC(=O)NCCCCCCNC(=O)O[C@@H]([C@@H]2OC(C(=O)O)=C[C@H](N=C(N)N)[C@H]2NC(C)=O)[C@H](O)CO)CC(=O)NCCCCCCNC(=O)O[C@@H]([C@@H]2OC(C(=O)O)=C[C@H](NC(=N)N)[C@H]2NC(C)=O)[C@H](O)CO)CC(=O)NCCCCCCNC(=O)O[C@@H]([C@@H]2OC(C(=O)O)=C[C@H](N=C(N)N)[C@H]2NC(C)=O)[C@H](O)CO)[C@H](O)CO)OC(C(=O)O)=C[C@@H]1N=C(N)N
[2]
  EC50: 1.07 ng/mL (≈ 0.505 nM)
[4]
  EC50: 2.84 ng/mL (≈ 1.34 nM)
[11]
  Effectiveness: 95.53%
[12]
  Effectiveness: 68.38%

## CC(=O)N[C@H]1[C@H]([C@H](OC(=O)NCCCCCCNC(=O)c2cc(C(=O)NCCCCCCNC(=O)O[C@@H]([C@@H]3OC(C(=O)O)=C[C@H](N=C(N)N)[C@H]3NC(C)=O)[C@H](O)CO)cc(C(=O)NCCCCCCNC(=O)O[C@@H]([C@@H]3OC(C(=O)O)=C[C@H](NC(=N)N)[C@H]3NC(C)=O)[C@H](O)CO)c2)[C@H](O)CO)OC(C(=O)O)=C[C@@H]1N=C(N)N
[2]
  EC50: 0.82 ng/mL (≈ 0.519 nM)
[4]
  EC50: 1.33 ng/mL (≈ 0.842 nM)
[11]
  Effectiveness: 96.24%
[12]
  Effectiveness: 70.15%

## CC(=O)N[C@H]1[C@H]([C@H](OC(=O)NCCCCCCNC(=O)CC(O)(CC(=O)NCCCCCCNC(=O)O[C@@H]([C@@H]2OC(C(=O)O)=C[C@H](N=C(N)N)[C@H]2NC(C)=O)[C@H](O)CO)C(=O)NCCCCCCNC(=O)O[C@@H]([C@@H]2OC(C(=O)O)=C[C@H](NC(=N)N)[C@H]2NC(C)=O)[C@H](O)CO)[C@H](O)CO)OC(C(=O)O)=C[C@@H]1N=C(N)N
[2]
  EC50: 0.159 ng/mL (≈ 0.102 nM)
[3]
  Effectiveness: 99.11%
[4]
  EC50: 2.48 ng/mL (≈ 1.58 nM)
[11]
  Effectiveness: 85.88%
